Results from patent publication US20040121304A1, “Method for screening for progesterone receptor isoform-specific ligands and for tissue-selective progesterone receptor ligands” (priority 2004, published 2004).

Assays:
[1] = molecular target: T1, hPR-A (progesterone receptor isoform A) (Homo sapiens, UniProt P06401); assay: Transactivation assay, SK-N-MC cells stably transfected with hPR-A and MTV-LUC reporter; assay type: cell-based; settings: for Emax / antagonism efficacy (PR-A): SK-N-MC hPR-A/MTV-LUC cells, 24 h incubation; for Emax: LUC activity relative to R5020 10^-7 mol/l = 100%, 1% ethanol = 0%, read-out: Agonism efficacy (PR-A); for antagonism efficacy (PR-A): inhibition of LUC induction by 10^-10 mol/l R5020
T1 construct: expressed in transfected cells; host or cells: SK-N-MC (human neuroblastoma) cells, stably transfected with phPR-2 (PR-A plasmid) plus pRSV-neo and pMTV-LUC
T1 sequence (P06401 1-769 isoform P06401-2): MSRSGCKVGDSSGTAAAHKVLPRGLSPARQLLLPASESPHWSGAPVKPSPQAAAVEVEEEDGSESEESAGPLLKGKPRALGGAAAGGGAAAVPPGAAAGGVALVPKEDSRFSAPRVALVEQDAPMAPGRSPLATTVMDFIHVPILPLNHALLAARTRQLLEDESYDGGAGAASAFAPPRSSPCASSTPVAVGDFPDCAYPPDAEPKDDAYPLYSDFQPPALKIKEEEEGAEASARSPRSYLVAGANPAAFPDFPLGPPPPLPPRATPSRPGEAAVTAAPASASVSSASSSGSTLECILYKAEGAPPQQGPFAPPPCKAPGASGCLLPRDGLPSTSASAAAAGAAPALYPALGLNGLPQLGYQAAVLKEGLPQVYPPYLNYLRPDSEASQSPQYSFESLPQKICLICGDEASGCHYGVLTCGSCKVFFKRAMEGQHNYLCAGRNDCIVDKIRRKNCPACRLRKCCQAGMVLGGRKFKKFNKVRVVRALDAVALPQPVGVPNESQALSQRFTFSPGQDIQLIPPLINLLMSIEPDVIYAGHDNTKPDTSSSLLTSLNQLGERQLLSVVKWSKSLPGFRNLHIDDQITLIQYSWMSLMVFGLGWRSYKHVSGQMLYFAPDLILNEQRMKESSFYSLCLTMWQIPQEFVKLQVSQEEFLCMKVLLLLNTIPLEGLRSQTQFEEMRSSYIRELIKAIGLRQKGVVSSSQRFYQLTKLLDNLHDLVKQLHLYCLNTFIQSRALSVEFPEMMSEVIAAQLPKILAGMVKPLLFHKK
Procedure: (§1) The method for screening for isoform-specific PR ligands according to the present invention is carried out with first and second SK-N-MC cells stably transfected with a plasmid expressing the hPR-A (first cells) or the hPR-B (second cells) and the LUC reporter gene linked to the hormonally responsive MTV promoter. A detailed description of how the cell lines according to the invention and used in this Example may be obtained is given in Example 5.
(§2) The cells are cultured in Minimum Essential Medium with Earl's Salts (S-MEM, without L-glutamine; Gibco BRL, no. 21090-022), supplemented with 10% fetal calf serum (FCS), penicillin 100U/streptomycin 100 μg/ml (Biochrom, no. A2213), L-glutamine 4 mmol/l (Gibco BRL, no. 25030-024), sodium pyruvate 1 mmol/l (Biochrom, no. L0473) and 1× non-essential amino acids (Biochrom, no. K0293) at a temperature of 37° C. and in an atmosphere of 5% carbon dioxide.
(§3) For the transactivation assay, the cells are seeded onto 96-well dishes (2×10^4 cells/dish) and cultured in a medium as described above, with the exception that the FCS is replaced by a 3% charcoal stripped FCS. 48 hours later, cells are contacted with prediluted test compounds. For determination of agonistic activity, cells are cultured in the presence of increasing concentrations (10^−6 to 10^−11 mol/l) of test compounds. As a positive control for reporter gene induction cells are treated with 10^−6 to 10^−11 mol/l R5020 (promegestone). As a negative control for reporter gene induction, cells are cultured in 1% ethanol. For determination of antagonistic activity, cells are treated with 10^−10 mol/l R5020 and additionally with increasing concentrations (10^−6 to 10^−11 mol/l) of test compounds. As a positive control for inhibition of reporter gene transcription, cells are cultured in increasing concentrations (10^−7 to 10^−12 mol/l) of the antiprogestin mifepristone. As a negative control for inhibition of reporter gene transcription, cells are cultured in 1% ethanol.
(§4) After incubation with test compounds for 24 hours, the medium is removed and cells are lysed with 20 μl of lysis buffer (Luciferase Assay System E 153A; Promega) and under agitation of the plate for 10 min. After addition of 30 μl of luciferase reagent (Luciferase Assay System E 151A+152A; Promega) within 30 seconds per plate, the activity of the luciferase reporter gene product is determined in the cell lysates by means of a Microlite ML 3000 microtiter plate luminometer (Dynatech) in cycle mode.
(§5) Evaluation of the response gives the efficacy [%] for both agonism and antagonism, and evaluation of the EC50 (for agonism) and IC50 (for antagonism) values gives the potency [nM]. Calculation of these values is conducted as follows:
(§6) Calculation of Agonistic Activity:
(§7) The LUC activity [%] for the measured data points is calculated as follows: [formula]
(§8) and CO=0% stimulation (ethanol, 1%).
(§9) Thus, the efficacy [%] is determined according to: [formula]
(§10) The potency [nM], i.e. the EC50, is determined graphically.
(§11) Calculation of Antagonistic Activity:
(§12) wherein CI=0% inhibition (R5020, 10^−10 mol/l) (corresponds to 100% stimulation)
(§13) and CO=100% inhibition (EtOH, 1%) (corresponds to 0% stimulation)
(§14) The potency [nM], i.e. the IC50, is determined graphically.

[2] = molecular target: T2, hPR-B (progesterone receptor isoform B) (Homo sapiens, UniProt P06401); assay: Transactivation assay, SK-N-MC cells stably transfected with hPR-B and MTV-LUC reporter; assay type: cell-based; settings: for Emax / antagonism efficacy (PR-B): SK-N-MC hPR-B/MTV-LUC cells, 24 h incubation; for Emax: LUC activity relative to R5020 10^-7 mol/l = 100%, 1% ethanol = 0%, read-out: Agonism efficacy (PR-B); for antagonism efficacy (PR-B): inhibition of LUC induction by 10^-10 mol/l R5020; for Difference of agonism efficacies (PR-B - PR-A): indicating PR-B selectivity
T2 construct: expressed in transfected cells; host or cells: SK-N-MC (human neuroblastoma) cells, stably transfected with pRSVhPR-neo (built from pRC/RSV and hPR-1) and pMTV-LUC
T2 sequence (P06401 1-933): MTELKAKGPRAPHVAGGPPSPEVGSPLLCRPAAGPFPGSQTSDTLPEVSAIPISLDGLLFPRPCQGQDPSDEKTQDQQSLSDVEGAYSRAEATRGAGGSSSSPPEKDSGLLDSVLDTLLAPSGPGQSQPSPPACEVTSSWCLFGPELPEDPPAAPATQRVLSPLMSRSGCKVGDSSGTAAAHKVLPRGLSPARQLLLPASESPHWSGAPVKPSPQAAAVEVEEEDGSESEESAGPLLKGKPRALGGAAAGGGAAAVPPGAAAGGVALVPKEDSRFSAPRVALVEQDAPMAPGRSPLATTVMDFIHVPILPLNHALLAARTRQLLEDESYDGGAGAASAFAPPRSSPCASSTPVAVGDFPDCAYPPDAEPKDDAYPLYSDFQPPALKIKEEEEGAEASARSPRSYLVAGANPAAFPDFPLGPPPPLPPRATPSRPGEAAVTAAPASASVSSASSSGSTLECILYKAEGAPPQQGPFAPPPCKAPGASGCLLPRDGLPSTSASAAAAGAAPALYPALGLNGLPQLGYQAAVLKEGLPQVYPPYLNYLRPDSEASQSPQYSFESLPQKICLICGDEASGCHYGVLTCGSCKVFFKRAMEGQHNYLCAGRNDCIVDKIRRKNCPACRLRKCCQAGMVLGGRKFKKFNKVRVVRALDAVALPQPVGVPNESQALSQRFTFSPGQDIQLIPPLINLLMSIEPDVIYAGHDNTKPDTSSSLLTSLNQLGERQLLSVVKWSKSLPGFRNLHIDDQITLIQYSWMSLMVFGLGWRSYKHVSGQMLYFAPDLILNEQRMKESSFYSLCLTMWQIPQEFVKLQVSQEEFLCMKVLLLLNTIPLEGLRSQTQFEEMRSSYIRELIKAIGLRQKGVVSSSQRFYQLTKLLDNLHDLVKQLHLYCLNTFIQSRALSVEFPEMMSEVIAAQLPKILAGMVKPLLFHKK
Procedure: as §1, §2, §3, §4, §5, §6, §7, §8, §9, §10, §11, §12, §13, §14

C#C[C@]1(O)C=CC2C3CCC4=CC(=O)CC[C@@]45CCC=C(C[C@@]21CC)C35 (stereo partly drawn) [13-ethyl-5α,9-dihydro-17-hydroxy-(17α)-6′H-benzo[10,9,11]-18,19-dinorpregna-4,9(11),15-trien-20-yn-3-one]
Emax [1]: 85% | antagonism efficacy (PR-A) [1]: none | Emax [2]: 108% | antagonism efficacy (PR-B) [2]: none | Difference of agonism efficacies (PR-B - PR-A) [2]: 23%

C#C[C@]1(O)CCC2C3CCC4=CC(=O)CC[C@@]45CC=C[C@@H](C[C@@]21CC)C35 (stereo partly drawn) [13-ethyl-9,11-dihydro-17-hydroxy-(11α,17α)-6′H-benzo[10,9,11]-18,19-dinorpregna-4,9(11)-dien-20-yn-3-one]
Emax [1]: 129% | antagonism efficacy (PR-A) [1]: none | Difference of agonism efficacies (PR-A - PR-B) ([1]; indicating PR-A selectivity): 21% | Emax [2]: 108% | antagonism efficacy (PR-B) [2]: none

CC(=O)O[C@]1(C(C)=O)CCC2C3C=C(Cl)C4=CC(=O)CC[C@@]45CC[C@@H](C[C@@]21C)C35 (stereo partly drawn) [17-(acetyloxy)-6-chloro-9,11-dihydro-(11α)-cyclopenta[10,9,11]-19-norpregna-4,6,9(11)-triene-3,20-dione]
Emax [1]: 29% | antagonism efficacy (PR-A) [1]: 45% | Difference of antagonism efficacies (PR-A - PR-B) ([1]; indicating PR-A selectivity): 15% | Emax [2]: 50% | antagonism efficacy (PR-B) [2]: 30% | Difference of agonism efficacies (PR-B - PR-A) [2]: 21%

CC(CC(O)(CNc1ccc2c(c1)COC2=O)C(F)(F)F)c1ccccc1 (stereo not shown) [5-{[2-hydroxy-4-phenyl-2-(trifluoromethyl)pentyl]amino}-1(3H)-isobenzofiuranone]
Emax [1]: 39.9% | antagonism efficacy (PR-A) [1]: none | Emax [2]: 56.8% | antagonism efficacy (PR-B) [2]: none | Difference of agonism efficacies (PR-B - PR-A) [2]: 17%

CC(=O)O[C@]1(C(C)=O)CCC2C3C[C@H](C)C4=CC(=O)CC[C@@]45CC=C[C@@H](C[C@@]21C)C35 (stereo partly drawn) [17-(acetyloxy)-9,11-dihydro-6-methyl-(6α,11α)-6H′benzo[10,9,11]-19-norpregna-4,9(11)-diene-3,20-dione]
Emax [1]: 50% | antagonism efficacy (PR-A) [1]: none | Emax [2]: 90% | antagonism efficacy (PR-B) [2]: none | Difference of agonism efficacies (PR-B - PR-A) [2]: 40%

C#C[C@]1(O)C=CC2C3CCC4=CC(=O)CC[C@@]45CC=C[C@@H](C[C@@]21C)C35 (stereo partly drawn) [9,11-dihydro-17-hydroxy-(11α,17α)-6′H-benzo[10,9,11]-19-norpregna-4,9(11), 15-trien-20-yn-3-one]
Emax [1]: 131% | antagonism efficacy (PR-A) [1]: none | Difference of agonism efficacies (PR-A - PR-B) ([1]; indicating PR-A selectivity): 17% | Emax [2]: 114% | antagonism efficacy (PR-B) [2]: none

O=C1OCc2cc(NC(=O)C(O)(CC3(c4cccc(Br)c4)CC3)C(F)(F)F)ccc21 (stereo not drawn) [1-(3-bromophenyl)-N-(1,3-dihydro-1-oxo-5-isobenzofuranyl)-α-hydroxy-α-(trifluoromethyl)-cyclopropanepropanamide]
Emax [1]: 81% | antagonism efficacy (PR-A) [1]: none | Emax [2]: 106% | antagonism efficacy (PR-B) [2]: none | Difference of agonism efficacies (PR-B - PR-A) [2]: 25%

CC(=O)O[C@]1(C(C)=O)CC[C@H]2[C@@H]3C=C(C)C4=CC(=O)CC[C@]4(C)[C@H]3CC[C@@]21C [17-acetoxy-6-methyl-4,6-pregnadiene-3,20-dione]
Emax [1]: 35% | antagonism efficacy (PR-A) [1]: none | Emax [2]: 81% | antagonism efficacy (PR-B) [2]: none | Difference of agonism efficacies (PR-B - PR-A) [2]: 46%

C=C[C@]1(O)CCC2C3CCC4=CC(=O)CC[C@@]45CC=C[C@@H](C[C@@]21CC)C35 (stereo partly drawn) [13-ethyl-9,11-dihydro-17-hydroxy-(11α,17α)-6′H-benzo[10,9,11]-18,19-dinorpregna-4,9(11),20-trien-3-one]
Emax [1]: 132% | antagonism efficacy (PR-A) [1]: none | Difference of agonism efficacies (PR-A - PR-B) ([1]; indicating PR-A selectivity): 24% | Emax [2]: 108% | antagonism efficacy (PR-B) [2]: none
